Test [1] relates to BPAE co-culture clones (cortical stem cells). The experiment in a line: Inhibition of Notch activation in endothelial co-cultured cortical stem cell clones. To be noted: BPAE co-culture clones treated for 6 hours, 50 μM, vs DMSO vehicle. In kind it is cell-based, mouse. The protocol: γ-secretase inhibitor II (Calbiochem, 50 μM) in DMSO was added to co-cultured cells after 4 days for 6 hours. The same amount of DMSO was used as vehicle control. The cells were then fixed and stained for β-tubulin III and double-labelled for Nestin or β-catenin, and the stained cells were quantified.

Test [2] relates to cortical stem cell clones. The experiment in a line: Clonal growth of cortical stem cells with added soluble growth factors (without feeder cells). In kind it is cell-based, mouse. Conditions: for duplication of the effect of endothelial co-culture on clonal growth: factor added at 10-50 ng/ml to serum-free medium with FGF2, no feeder cells. The protocol: Embryonic cerebral cortices and adult SVZ were dissected and dissociated as described (18-20). Single cells were plated into poly-l-lysine-coated 6-well plates (Costar) at clonal density (2000-4000 cells/well) and cultured in basal serum-free medium consisting of DMEM, B27, N2, NAC and 10 ng/ml FGF2 (19,20). To test the effects of soluble growth factors (PDGF, CNTF, TGFβ, IGF1, IL1, IL6, G-CSF, M-CSF, GM-CSF, LIF, BDNF, Steel factor, VEGF or EGF), each factor was added to serum-free medium with FGF2 at a range of 10-50 ng/ml, and clonal growth (cell number and generation of neurons and glia) was assessed (without co-cultured feeder cells). LIF and VEGF were also tested in combination, each added at 10 ng/ml into serum-free medium, with and without FGF2.

Data on eleven compounds can be found in US7901936B2, “Method for stimulating self-renewal of neural stem cells and enhancing neurogenesis” (Albany Medical College, priority 2004, dated 2011).

Starred links: 1 amine or outer side, 2 acyl side, 3 side chain; linkers in the order of their positions; H or OH if unused. Non-standard residues stand in square brackets, D forms with d. Residues, ends and D or L forms follow the SMILES beside them. *: point of attachment. X1 = CC(N[*:1])C(=O)C(F)(F)C(=O)[*:2]; Boc = CC(C)(C)OC(=O)*

As to `CCC(C)C(NC(=O)C(NC(=O)OC(C)(C)C)C(C)C)C(=O)NC(C)C(=O)C(F)(F)C(=O)NC(C(=O)NC(C(=O)OC)C(C)CC)C(C)C` (centres unmarked) [γ-secretase inhibitor II] (Boc-VI[X1]VI-OMe; configuration not given here), in test [1], the β-catenin staining result was “significantly decreased” and the β-tubulin-III staining entry was “significantly increased”.
As for “EGF: soluble growth factor (NSDSECPLSHDGYCLHDGVCMYIEALDKYACNCVVGYIGERCQYRDLKWWELR; Epidermal growth factor; UniProt P01133 971-1023, looked up)”, the “duplication of the effect of endothelial co-culture on clonal growth” value (“duplication” for short) in test [2] is “none duplicated the result we see from endothelial co-cultures”.
As for “FGF2: soluble growth factor in basal serum-free medium”, in test [2] (FGF2 alone), the “neural stem cell proliferation” value is recorded as “promotes neural stem cell proliferation” and the “neural stem cell self-renewal” value is recorded as “cannot alone maintain their self-renewal”. For the same compound, the “duplication” value in test [2] was “none duplicated the result we see from endothelial co-cultures”.
Regarding GM-CSF: soluble growth factor, in test [2], the “duplication” value is “none duplicated the result we see from endothelial co-cultures”.
Still for that read-out and setting: with IGF1: soluble growth factor the entry was “none duplicated the result we see from endothelial co-cultures”.
As for IL6: soluble growth factor, the “duplication” value in test [2] is given as “none duplicated the result we see from endothelial co-cultures”.
Turning to LIF: soluble growth factor, the “duplication” value in test [2] was “none duplicated the result we see from endothelial co-cultures”.
PDGF: the “duplication” value in test [2] is given as “none duplicated the result we see from endothelial co-cultures”.
With Steel factor: soluble growth factor, the “duplication” value in test [2] is “none duplicated the result we see from endothelial co-cultures”.
Same read-out and setting: with TGFβ the entry was “none duplicated the result we see from endothelial co-cultures”; with VEGF, “Neither factor, alone or in combination, duplicated the effect of endothelial factors”.
